Measurements reported in PubChem BioAssay (NCI).
Several values for one entry are separate records, joined by “and”; a condition that tells them apart may be missing. Equal values may be shown once.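 Exposure lasted 48 hours, with cells grown in 96-well plates and compounds tested at five concentrations. GI50 marks 50% less growth. The concentration for full growth arrest is given as TGI.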

Assays:
Assay in all cases: DTP human tumour cell line panel, 48 h
SF-539 CNS = test system: SF-539 CNS
CCRF-CEM leukemia = test system: CCRF-CEM leukemia
KM12 colon = test system: KM12 colon
MDA-MB-468 breast = test system: MDA-MB-468 breast
SK-OV-3 ovarian = test system: SK-OV-3 ovarian
HOP-62 NSCLC = test system: HOP-62 NSCLC
HL-60(TB) leukemia = test system: HL-60(TB) leukemia
DU-145 prostate = test system: DU-145 prostate
HOP-92 NSCLC = test system: HOP-92 NSCLC
OVCAR-4 ovarian = test system: OVCAR-4 ovarian
UACC-257 melanoma = test system: UACC-257 melanoma
SW-620 colon = test system: SW-620 colon
EKVX NSCLC = test system: EKVX NSCLC
HS 578T breast = test system: HS 578T breast
SK-MEL-28 melanoma = test system: SK-MEL-28 melanoma
TK-10 renal = test system: TK-10 renal
A498 renal = test system: A498 renal
SNB-19 CNS = test system: SNB-19 CNS
NCI-H522 lung = test system: NCI-H522 lung
IGROV1 ovarian = test system: IGROV1 ovarian
K-562 leukemia = test system: K-562 leukemia
NCI/ADR-RES ovarian = test system: NCI/ADR-RES ovarian
SNB-75 CNS = test system: SNB-75 CNS
PC-3 prostate = test system: PC-3 prostate
MCF7 breast = test system: MCF7 breast
U251 CNS = test system: U251 CNS
LOX IMVI melanoma = test system: LOX IMVI melanoma
OVCAR-8 ovarian = test system: OVCAR-8 ovarian
A549 NSCLC = test system: A549 NSCLC
MDA-MB-231 breast = test system: MDA-MB-231 breast
MALME-3M melanoma = test system: MALME-3M melanoma
MDA-MB-435 = test system: MDA-MB-435
NCI-H23 lung = test system: NCI-H23 lung
RPMI-8226 leukemia = test system: RPMI-8226 leukemia
ACHN renal = test system: ACHN renal
SF-295 CNS = test system: SF-295 CNS
HCC-2998 colon = test system: HCC-2998 colon
NCI-H226 lung = test system: NCI-H226 lung
COLO 205 colon = test system: COLO 205 colon
NCI-H460 lung = test system: NCI-H460 lung
MOLT-4 leukemia = test system: MOLT-4 leukemia
HCT-15 colon = test system: HCT-15 colon
786-0 renal = test system: 786-0 renal
OVCAR-5 ovarian = test system: OVCAR-5 ovarian
HCT-116 colon = test system: HCT-116 colon
SF-268 CNS = test system: SF-268 CNS
UACC-62 melanoma = test system: UACC-62 melanoma
SK-MEL-2 melanoma = test system: SK-MEL-2 melanoma
SK-MEL-5 melanoma = test system: SK-MEL-5 melanoma
OVCAR-3 ovarian = test system: OVCAR-3 ovarian
BT-549 breast = test system: BT-549 breast
CAKI-1 renal = test system: CAKI-1 renal
HT29 colon = test system: HT29 colon
SN12C renal = test system: SN12C renal
UO-31 renal = test system: UO-31 renal
M14 melanoma = test system: M14 melanoma
SR leukemia = test system: SR leukemia
T-47D breast = test system: T-47D breast

Compound `COc1ccc(C(=O)/C=C/c2ccc(OCc3ccccc3)c(OC)c2)cc1OC` has a GI50 (SF-539 CNS) of 3.38 µM, a TGI (SF-539 CNS) of 13.1 µM and a GI50 (CCRF-CEM leukemia) of 4.01 µM. The TGI (CCRF-CEM leukemia) was over 100 µM, the GI50 (KM12 colon) was 5.19 µM and the TGI (KM12 colon) was over 100 µM. The GI50 (MDA-MB-468 breast) was 2.15 µM and 3.99 µM, the TGI (MDA-MB-468 breast) was 7.35 µM and 32.2 µM and the GI50 (SK-OV-3 ovarian) was 40.5 µM. It also gave a TGI (SK-OV-3 ovarian) of over 100 µM, a GI50 (HOP-62 NSCLC) of 4.95 µM and a TGI (HOP-62 NSCLC) of over 100 µM. For the same compound, the GI50 (HL-60(TB) leukemia) was 13.4 µM, the TGI (HL-60(TB) leukemia) was 61.2 µM and the GI50 (DU-145 prostate) was 5.78 µM. It also gave a TGI (DU-145 prostate) of over 100 µM, a GI50 (HOP-92 NSCLC) of 6.03 µM and a TGI (HOP-92 NSCLC) of over 100 µM. The GI50 (OVCAR-4 ovarian) was 4.28 µM, the TGI (OVCAR-4 ovarian) was over 100 µM and the GI50 (UACC-257 melanoma) was 29.3 µM. It also gave a TGI (UACC-257 melanoma) of over 100 µM, a GI50 (SW-620 colon) of 3.64 µM and a TGI (SW-620 colon) of over 100 µM. It also gave a GI50 (EKVX NSCLC) of 11.4 µM, a TGI (EKVX NSCLC) of over 100 µM and a GI50 (HS 578T breast) of 18.4 µM. It also gave a TGI (HS 578T breast) of over 100 µM, a GI50 (SK-MEL-28 melanoma) of 34 µM and a TGI (SK-MEL-28 melanoma) of over 100 µM. For the same compound, the GI50 (TK-10 renal) was 21.4 µM, the TGI (TK-10 renal) was over 100 µM and the GI50 (A498 renal) was 20.3 µM. For the same compound, the TGI (A498 renal) was 94.2 µM, the GI50 (SNB-19 CNS) was 8.3 µM and the TGI (SNB-19 CNS) was over 100 µM. It also gave a GI50 (NCI-H522 lung) of 4.86 µM, a TGI (NCI-H522 lung) of 36.3 µM and a GI50 (IGROV1 ovarian) of 6.33 µM. The TGI (IGROV1 ovarian) was over 100 µM, the GI50 (K-562 leukemia) was 3.06 µM and the TGI (K-562 leukemia) was over 100 µM. For the same compound, the GI50 (NCI/ADR-RES ovarian) was 5.08 µM, the TGI (NCI/ADR-RES ovarian) was 39.3 µM and the GI50 (SNB-75 CNS) was 18.7 µM. The TGI (SNB-75 CNS) was 77.2 µM, the GI50 (PC-3 prostate) was 7.05 µM and the TGI (PC-3 prostate) was over 100 µM. For the same compound, the GI50 (MCF7 breast) was 3.44 µM, the TGI (MCF7 breast) was over 100 µM and the GI50 (U251 CNS) was 3.16 µM. The TGI (U251 CNS) was over 100 µM, the GI50 (LOX IMVI melanoma) was 4.11 µM and the TGI (LOX IMVI melanoma) was 37.1 µM. It also gave a GI50 (OVCAR-8 ovarian) of 3.6 µM, a TGI (OVCAR-8 ovarian) of over 100 µM and a GI50 (A549 NSCLC) of 10.4 µM. For the same compound, the TGI (A549 NSCLC) was over 100 µM, the GI50 (MDA-MB-231 breast) was 8.48 µM and the TGI (MDA-MB-231 breast) was 78.9 µM. For the same compound, the GI50 (MALME-3M melanoma) was 41.1 µM, the TGI (MALME-3M melanoma) was over 100 µM and the GI50 (MDA-MB-435) was 12 µM. It also gave a TGI (MDA-MB-435) of 59.6 µM, a GI50 (NCI-H23 lung) of 6.95 µM and a TGI (NCI-H23 lung) of 43 µM. It also gave a GI50 (RPMI-8226 leukemia) of 3.02 µM, a TGI (RPMI-8226 leukemia) of over 100 µM and a GI50 (ACHN renal) of 15.3 µM. For the same compound, the TGI (ACHN renal) was over 100 µM, the GI50 (SF-295 CNS) was 9.59 µM and the TGI (SF-295 CNS) was over 100 µM. It also gave a GI50 (HCC-2998 colon) of 7.06 µM, a TGI (HCC-2998 colon) of 30 µM and a GI50 (NCI-H226 lung) of 5.34 µM. For the same compound, the TGI (NCI-H226 lung) was 87.3 µM, the GI50 (COLO 205 colon) was 15.7 µM and the TGI (COLO 205 colon) was over 100 µM. The GI50 (NCI-H460 lung) was 4.6 µM, the TGI (NCI-H460 lung) was 38.3 µM and the GI50 (MOLT-4 leukemia) was 4.47 µM. The TGI (MOLT-4 leukemia) was over 100 µM, the GI50 (HCT-15 colon) was 3.45 µM and the TGI (HCT-15 colon) was 47.6 µM. It also gave a GI50 (786-0 renal) of 25.4 µM, a TGI (786-0 renal) of over 100 µM and a GI50 (OVCAR-5 ovarian) of 12.5 µM. For the same compound, the TGI (OVCAR-5 ovarian) was 92.2 µM, the GI50 (HCT-116 colon) was 3.56 µM and the TGI (HCT-116 colon) was over 100 µM. It also gave a GI50 (SF-268 CNS) of 10.8 µM, a TGI (SF-268 CNS) of over 100 µM and a GI50 (UACC-62 melanoma) of 6.42 µM. For the same compound, the TGI (UACC-62 melanoma) was over 100 µM, the GI50 (SK-MEL-2 melanoma) was 17.4 µM and the TGI (SK-MEL-2 melanoma) was 60.5 µM. It also gave a GI50 (SK-MEL-5 melanoma) of 17.4 µM, a TGI (SK-MEL-5 melanoma) of 43.1 µM and a GI50 (OVCAR-3 ovarian) of 4.48 µM. It also gave a TGI (OVCAR-3 ovarian) of over 100 µM, a GI50 (BT-549 breast) of 5.08 µM and a TGI (BT-549 breast) of 55.7 µM. It also gave a GI50 (CAKI-1 renal) of 16.7 µM, a TGI (CAKI-1 renal) of over 100 µM and a GI50 (HT29 colon) of 3.52 µM. It also gave a TGI (HT29 colon) of over 100 µM, a GI50 (SN12C renal) of 4.48 µM and a TGI (SN12C renal) of 45.7 µM. The GI50 (UO-31 renal) was 5.38 µM, the TGI (UO-31 renal) was over 100 µM and the GI50 (M14 melanoma) was 27.4 µM. For the same compound, the TGI (M14 melanoma) was over 100 µM, the GI50 (SR leukemia) was 2.8 µM and the TGI (SR leukemia) was over 100 µM. For the same compound, the GI50 (T-47D breast) was 5.46 µM and the TGI (T-47D breast) was over 100 µM.
